Data taken from ChEMBL document CHEMBL1152223, “Analogues of 2-phenyl-ethenesulfonic acid phenyl ester have dual functions of inhibiting expression of inducible nitric oxide synthase and activating peroxisome proliferator-activated receptor gamma” (Bioorg Med Chem Lett, 2008).
pIC50: −log10 of the molar value. Activity calls are given as the source filed them. The rule behind the calls is not given here.

Columns and labels:
[1] = tested on: RAW264.7; assay: Inhibition of iNOS expression in LPS/IFN-gamma-stimulated mouse RAW264.7 cells at 10 uM; type: functional, cell-based
[2] = Cytotoxicity against mouse RAW264.7 cells; type: cell-based
[3] = tested on: RAW264.7; assay: Inhibition of iNOS expression in LPS/IFN-gamma-stimulated mouse RAW264.7 cells at 5 uM; type: functional, cell-based
[4] = tested on: RAW264.7; assay: Suppression of LPS/IFN-gamma-stimulated NO production in mouse RAW264.7 cells; type: functional, cell-based
[5] = molecular target: T1, Peroxisome proliferator-activated receptor gamma (Homo sapiens, UniProt P37231); assay: Displacement of [3H]BRL49653 from PPARgamma ligand binding domain by scintillation proximity assay
T1 sequence (P37231 whole entry): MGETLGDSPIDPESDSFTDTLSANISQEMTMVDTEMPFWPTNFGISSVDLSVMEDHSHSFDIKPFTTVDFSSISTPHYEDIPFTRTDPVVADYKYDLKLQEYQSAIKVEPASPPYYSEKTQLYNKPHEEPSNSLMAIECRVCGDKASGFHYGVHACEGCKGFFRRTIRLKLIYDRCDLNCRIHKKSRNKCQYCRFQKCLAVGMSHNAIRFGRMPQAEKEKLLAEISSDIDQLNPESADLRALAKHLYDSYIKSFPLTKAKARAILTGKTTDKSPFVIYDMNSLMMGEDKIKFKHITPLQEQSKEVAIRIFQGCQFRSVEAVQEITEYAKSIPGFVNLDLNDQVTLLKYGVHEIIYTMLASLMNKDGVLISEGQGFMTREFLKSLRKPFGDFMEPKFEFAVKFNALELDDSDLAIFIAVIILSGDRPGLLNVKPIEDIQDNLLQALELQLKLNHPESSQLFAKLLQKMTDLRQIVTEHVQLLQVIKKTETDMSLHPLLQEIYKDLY

[6] = tested on: RAW264.7; assay: Suppression of LPS/IFN-gamma-stimulated NO production in mouse RAW264.7 cells at 10 uM; type: functional

Row | Structure (SMILES) | GI50 [2] | pIC50 [4] | pIC50 [5] | Activity [6] | also measured
1 | O=S(=O)(/C=C/c1ccccc1)Oc1ccc(OCc2ccccc2)cc1 | > 80 µM | 5.03 | 6.15 | – | Activity [1]: Active; Activity [3]: Active
2 | O=C(O)c1cccc(OS(=O)(=O)/C=C/c2ccccc2)c1 | > 80 µM | 4.66 | 4.87 | – | –
3 | O=C(O)c1cccc(OS(=O)(=O)CCc2ccccc2)c1 | – | – | – | 6% | –
4 | O=S(=O)(/C=C/c1ccccc1)Oc1cccc(Oc2ccccc2)c1 | > 80 µM | 4.79 | 6.42 | – | –
5 | Cc1ccc(OS(=O)(=O)/C=C/c2ccccc2)cc1 | > 80 µM | 5.56 | 6.39 | – | Activity [1]: Active; Activity [3]: Active
6 | O=S(=O)(Cc1ccccc1)Oc1ccccc1 [PHENYL PHENYLMETHANESULFONATE] | – | – | – | 3% | –
7 | CCOc1ccc(NS(=O)(=O)/C=C/c2ccccc2)cc1 | – | – | – | 0% | –
8 | Cc1cccc(OS(=O)(=O)CCc2ccccc2)c1 | – | – | – | 0% | –
9 | O=S(=O)(Cc1ccccc1)Oc1ccc2ccccc2c1 | – | – | – | 7% | –
10 | CN(CCOc1ccc(CC2SC(=O)NC2=O)cc1)c1ccccn1 (stereo unspecified) [ROSIGLITAZONE] | – | 4.76 | – | – | –
11 | CC(=O)Nc1ccc(OS(=O)(=O)/C=C/c2ccccc2)cc1 | > 80 µM | 4.70 | 4.97 | – | –
12 | O=C(O)c1cccc(NS(=O)(=O)/C=C/c2ccccc2)c1 | – | – | – | 1% | –
13 | O=S(=O)(/C=C/c1ccccc1)Nc1ccccc1 | – | – | – | 4% | –
14 | O=S(=O)(Cc1ccccc1)Oc1ccccc1Cl | – | – | – | 0% | –
15 | COc1ccc(NS(=O)(=O)/C=C/c2ccccc2)cc1 | – | – | – | 5% | –
16 | Cc1ccc(NS(=O)(=O)/C=C/c2ccccc2)cc1 | – | – | – | 8% | –
17 | O=S(=O)(/C=C/c1ccccc1)Oc1ccc2ccccc2c1 | > 80 µM | 5.21 | 5.96 | – | –

Row | Structure (SMILES) | GI50 [2] | pIC50 [4] | pIC50 [5] | Activity [6] | also measured
18 | CCS(=O)(=O)Oc1cccc(Oc2ccccc2)c1 | – | – | – | 11% | –
19 | CCOC(=O)c1ccc(OS(=O)(=O)/C=C/c2ccccc2)cc1 | > 80 µM | 5.01 | 6.13 | – | –
20 | Cc1cccc(OS(=O)(=O)/C=C/c2ccccc2)c1 | 62.5 µM | 5.46 | 5.93 | – | –
21 | O=S(=O)(/C=C/c1ccccc1)Oc1ccccc1 | > 80 µM | 5.18 | 5.88 | – | Activity [1]: Active; Activity [3]: Active
22 | O=S(=O)(CCc1ccccc1)Oc1ccc(Cl)cc1 | – | – | – | 4% | –
23 | COc1cccc(NS(=O)(=O)/C=C/c2ccccc2)c1 | – | – | – | 12% | –
24 | O=S(=O)(CCc1ccccc1)Oc1c(Cl)cc(Cl)cc1Cl | – | – | – | 10% | –
25 | O=S(=O)(CCc1ccccc1)Oc1ccccc1 | – | – | – | 2% | –
26 | O=S(=O)(CCc1ccccc1)Oc1ccc2ccccc2c1 | – | – | – | 6% | –
27 | O=S(=O)(/C=C/c1ccccc1)Nc1ccc(Br)cc1 | – | – | – | 5% | –
28 | COc1ccc(OS(=O)(=O)/C=C/c2ccccc2)cc1 | – | 5.13 | 5.89 | – | –
29 | O=S(=O)(/C=C/c1ccccc1)Oc1c(Cl)cc(Cl)cc1Cl | > 80 µM | 5.74 | 5.84 | – | Activity [1]: Active; Activity [3]: Active
30 | O=Cc1ccc(OS(=O)(=O)/C=C/c2ccccc2)cc1 | > 80 µM | 5.01 | 5.68 | – | Activity [1]: Active; Activity [3]: Active
31 | O=S(=O)(/C=C/c1ccccc1)Oc1ccc(Cl)cc1 | 75.3 µM | 5.63 | 6.52 | – | –
32 | CCCCC/C=C/C=C1/C(=O)C=C[C@@H]1C/C=C\CCCC(=O)O | – | 5.66 | – | – | Activity [1]: Active; Activity [3]: Active
33 | O=C(O)c1ccc(NS(=O)(=O)/C=C/c2ccccc2)cc1 | – | – | – | 2% | –
34 | NS(=O)(=O)c1ccc(NS(=O)(=O)/C=C/c2ccccc2)cc1 | – | – | – | 0% | –
